What all share (type): cell-based
Assay [1] concerns the target p-EGFR Del19/C797S (H1975-clone #23 cells) (Homo sapiens, UniProt P00533). In words: Cell p-EGFR inhibition assay, HTRF, H1975-clone#23 (DEL19/C797S) cells. The settings on record: 16 h treatment; for Imax (%): maximum percentage of pEGFR inhibition; for IC50: pEGFR inhibition. The procedure, abridged:
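Phospho-EGFR read by overnight HTRF on lysates, normalized to DMSO-treated high control; IC50, Hill slope and Imax fitted. Compounds were applied for 16 h (10 uM top, 5-fold steps, 8 doses) to an H1975 single clone carrying only exogenous Del19/C797S EGFR after sgRNA knockout of endogenous copies.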
A general note: In TR-FRET formats the signal depends on donor and acceptor labels being close together.

Assay [2] has as its target T1, EGFR-L858R/C797S (H1975-clone #8 cells) (Homo sapiens, UniProt P00533, C797S/L858R).
T1 construct: expressed in transfected cells; host or cells: H1975 (endogenous EGFR knocked out, clone #8)
Kind of assay: Cell degradation of EGFR, HTRF assay, H1975-clone#8 (L858R/C797S) cells. The settings on record: 16 h treatment; for DC50: EGFR degradation; for Dmax: maximum percentage of degradation.

The target of assay [3] is T2, p-EGFR L858R (BaF3-L858R cells) (Homo sapiens, UniProt P00533, L858R).
T2 construct: host or cells: BaF3
In words: Cell p-EGFR inhibition assay, HTRF, BaF3-L858R cells. The settings on record: 16 h treatment; for Imax (%): maximum percentage of pEGFR inhibition; for IC50: pEGFR inhibition. The procedure, abridged: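 BaF3-L858R cells treated 16 h at 37 °C, 5% CO2 with compound from 10 uM top, 5-fold dilutions, 8 doses, in 0.1% DMSO medium. Lysates read overnight by HTRF p-EGFR antibodies; IC50 fitted to four-parameter curve against DMSO high control.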

The target of assay [4] is T3, EGFR L858R (BaF3-L858R cells) (Homo sapiens, UniProt P00533, L858R).
T3 construct: host or cells: BaF3
In words: Cell degradation of EGFR, HTRF assay, BaF3-L858R cells. The settings on record: 16 h treatment; for DC50: EGFR degradation; for Dmax: maximum percentage of degradation. In short, it runs like this:
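BaF3-L858R cells treated 16 h at 37° C, 5% CO2 with compound (top 10 uM final, 5-fold, 8 doses, 0.1% DMSO). DC50 from four-parameter fit; Dmax is maximum percent degradation.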

Broadly, the IC50 is the concentration at which inhibition is half-maximal. As a reminder, the DC50 is the midpoint of the concentration-degradation curve. A low value points to a more potent degrader. By Dmax is commonly meant the largest share of the target that was removed. A lower Dmax goes with shallow degradation. `COC[C@@H]1CN(c2ccc3c(c2)N2CC4CC[C@H](COc5c(c(C(F)(F)F)nn5C)-c5cc(cc(C)n5)C(=O)/N=C/2N3)C4)CCN1C1CCN(c2cc(F)c([C@H]3CCC(=O)NC3=O)c(F)c2)CC1` [Example 77, (R)-3-(4-(4-((S)-4-((7^1R,7^3S,E)-1^1,2^6-dimethyl-3-oxo-1^3-(trifluoromethyl)-5^2,5^3-dihydro-1^1H,5^1H-9-oxa-4-aza-5(2,1)-benzo[d]imidazola-2(2,4)-pyridina-1(4,5)-pyrazola-7(1,3)-cyclopentanacyclononaphane-5^6-yl)-2-(methoxymethyl)piperazin-1-yl)piperidin-1-yl)-2,6-difluorophenyl)piperidine-2,6-dione]: in assay [1], the “Imax (%)” value is given as 99.2% and it took 9.5 nM to reach half-maximal inhibition (IC50). In assay [2], it took 5.5 nM to reach half-maximal degradation (DC50) and the Dmax was determined as 85.7%. In addition, in assay [3], the “Imax (%)” value is 91.3% and the 50% inhibitory concentration (IC50) was determined as 10.9 nM. In assay [4], this compound yielded a DC50 of 3.4 nM and a Dmax of 89.5%.
As for `COC[C@@H]1CN(c2ccc3c(c2)N2C[C@@H]4CC[C@H](COc5c(c(C)nn5C)-c5cc(cc(C)n5)C(=O)/N=C/2N3)C4)CCN1C1CCN(c2cc(F)c(C3CCC(=O)NC3=O)nc2C)CC1` (stereo partly drawn) [Example 89, 3-(3-fluoro-5-(4-((S)-2-(methoxymethyl)-4-((7^1R,7^3S,E)-1^1,1^3,2^6-trimethyl-3-oxo-5^2,5^3-dihydro-1^1H,5^1H-9-oxa-4-aza-5(2,1)-benzo[d]imidazola-2(2,4)-pyridina-1(4,5)-pyrazola-7(1,3)-cyclopentanacyclononaphane-5^6-yl)piperazin-1-yl)piperidin-1-yl)-6-methylpyridin-2-yl)piperidine-2,6-dione], the “Imax (%)” value in assay [1] turned out to be 101.2%; in assay [3], 99.7%. Also, the IC50 in assay [1] was 1.9 nM; in assay [3], 8 nM. Moreover, the half-maximal degradation concentration (DC50) came to 1.64 nM in assay [2] and 1.75 nM in assay [4]. Further, the Dmax amounted to 87.5% in assay [2] and 73.9% in assay [4].
For `Cc1cc2cc(n1)-c1cnn(C)c1OC[C@H]1CCC(C1)CN1/C(=N/C2=O)Nc2ccc(N3CCN(C4CCN(c5ccc(OC6CCC(=O)NC6=O)cc5F)CC4)CC3)cc21` (stereo partly drawn) [Example 88, 3-(4-(4-(4-((7^1R,7^3S,E)-1^1,2^6-dimethyl-3-oxo-5^2,5^3-dihydro-1^1H,5^1H-9-oxa-4-aza-5(2,1)-benzo[d]imidazola-2(2,4)-pyridina-1(4,5)-pyrazola-7(1,3)-cyclopentanacyclononaphane-5^6-yl)piperazin-1-yl)piperidin-1-yl)-3-fluorophenoxy)piperidine-2,6-dione], the “Imax (%)” value in assay [1] was determined as 100.7%; in assay [3] it was 108.3%. Further, the figures for the IC50 in assay [1] and in assay [3] were 3 nM and 6.1 nM, respectively. Besides, the 50% degradation concentration (DC50) in assay [2] amounted to 1.63 nM; in assay [4] it was 16.4 nM. Also, the greatest degradation seen (Dmax) in assay [2] was 82.9%; in assay [4], 95.8%.
On to `Cc1cc2cc(n1)-c1c(C)nn(C)c1OC[C@H]1CC[C@H](C1)CN1/C(=N/C2=O)Nc2ccc(N3CCN([C@@H]4CCN(c5ccc(OC6CCC(=O)NC6=O)cc5)C[C@@H]4F)CC3)cc21` (stereo partly drawn) [Example 144, 3-(4-((3S,4R)-3-fluoro-4-(4-((7^1R,7^3S,E)-1^1,1^3,2^6-trimethyl-3-oxo-5^2,5^3-dihydro-1^1H,5^1H-9-oxa-4-aza-5(2,1)-benzo[d]imidazola-2(2,4)-pyridina-1(4,5)-pyrazola-7(1,3)-cyclopentanacyclononaphane-5^6-yl)piperazin-1-yl)piperidin-1-yl)phenoxy)piperidine-2,6-dione], for which the “Imax (%)” value in assay [1] is 100.78%; in assay [3] it was 98.7%. In addition, the concentration for half-maximal inhibition (IC50) in assay [1] was found to be 0.97 nM; in assay [3], 5.5 nM. Also, the DC50 is 0.938 nM in assay [2] and 3.1 nM in assay [4]. Besides, the Dmax is 84.8% in assay [2] and 73.6% in assay [4].
In the case of `Cc1cc2cc(n1)-c1c(C)nn(C)c1OC[C@H]1CCC(C1)CN1/C(=N/C2=O)Nc2ccc(N3CCN(C4CCN(c5cc(F)c([C@H]6CCC(=O)NC6=O)c(F)c5)CC4)CC3)cc21` [Example 74, (R)-3-(2,6-difluoro-4-(4-(4-((7^1R,7^3S,E)-1^1,1^3,2^6-trimethyl-3-oxo-5^2,5^3-dihydro-1^1H,5^1H-9-oxa-4-aza-5(2,1)-benzo[d]imidazola-2(2,4)-pyridina-1(4,5)-pyrazola-7(1,3)-cyclopentanacyclononaphane-5^6-yl)piperazin-1-yl)piperidin-1-yl)phenyl)piperidine-2,6-dione], in assay [1], the “Imax (%)” value amounted to 101.2% and the IC50 worked out at 1.7 nM. In assay [2], this compound came in with a 50% degradation concentration (DC50) of 1 nM and a Dmax of 86.2%. Also, in assay [3], the “Imax (%)” value is recorded as 93.3% and the IC50 came out at 3.2 nM. In assay [4], it took 0.99 nM to reach half-maximal degradation (DC50) and the maximal degradation (Dmax) stood at 90.4%.
Regarding `Cc1cc2cc(n1)-c1c(C)nn(C)c1OC[C@H]1CC[C@H](C1)CN1/C(=N/C2=O)Nc2ccc(N3C[C@@H](C)N(C4CCN(c5cc(F)c([C@H]6CCC(=O)NC6=O)c(F)c5)CC4)C[C@@H]3C)cc21` [Example 200, (R)-3-(4-(4-((2R,5S)-2,5-dimethyl-4-((7^1R,7^3S,E)-1^1,1^3,2^6-trimethyl-3-oxo-5^2,5^3-dihydro-1^1H,5^1H-9-oxa-4-aza-5(2,1)-benzo[d]imidazola-2(2,4)-pyridina-1(4,5)-pyrazola-7(1,3)-cyclopentanacyclononaphane-5^6-yl)piperazin-1-yl)piperidin-1-yl)-2,6-difluorophenyl)piperidine-2,6-dione], in assay [1], the “Imax (%)” value was 102.89% and the IC50 amounted to 1.79 nM. In assay [2], the 50% degradation concentration (DC50) worked out at 1.87 nM and the Dmax was 94.6%. Also, in assay [3], the “Imax (%)” value turned out to be 98.42% and the concentration for half-maximal inhibition (IC50) was less than 0.128 nM. Besides, in assay [4], it took 2.1 nM to reach half-maximal degradation (DC50) and the maximal degradation (Dmax) was 85.7%.
For the compound `Cc1cc2cc(n1)-c1cnn(C)c1OC[C@H]1CCC(C1)CN1/C(=N/C2=O)Nc2ccc(N3CCC4(CC3)CN(C3CCN(c5cc(F)c([C@H]6CCC(=O)NC6=O)c(F)c5)CC3)C4)cc21` [Example 120, (R)-3-(4-(4-(7-((7^1R,7^3S,E)-1^1,2^6-dimethyl-3-oxo-5^2,5^3-dihydro-1^1H,5^1H-9-oxa-4-aza-5(2,1)-benzo[d]imidazola-2(2,4)-pyridina-1(4,5)-pyrazola-7(1,3)-cyclopentanacyclononaphane-5^6-yl)-2,7-diazaspiro[3.5]nonan-2-yl)piperidin-1-yl)-2,6-difluorophenyl)piperidine-2,6-dione], in assay [1], the “Imax (%)” value is given as 99.1% and the IC50 was 1.1 nM. Further, in assay [2], half-maximal degradation (DC50) was put at 0.55 nM and the Dmax worked out at 65.7%. Further, in assay [3], the “Imax (%)” value came to 94.2% and half-maximal inhibition (IC50) required 15.6 nM. Also, in assay [4], it took 3.14 nM to reach half-maximal degradation (DC50) and the Dmax came to 70.8%.
As for `COC[C@H]1CN(c2ccc3c(c2)N2CC4CC[C@H](COc5c(cnn5C)-c5cc(cc(C)n5)C(=O)/N=C/2N3)C4)CCN1C1CCN(c2cc(F)c(C3CCC(=O)NC3=O)nc2C)CC1` (stereo partly drawn) [Example 71, 3-(5-(4-((R)-4-((7^1R,7^3S,E)-1^1,2^6-dimethyl-3-oxo-5^2,5^3-dihydro-1^1H,5^1H-9-oxa-4-aza-5(2,1)-benzo[d]imidazola-2(2,4)-pyridina-1(4,5)-pyrazola-7(1,3)-cyclopentanacyclononaphane-5^6-yl)-2-(methoxymethyl)piperazin-1-yl)piperidin-1-yl)-3-fluoro-6-methylpyridin-2-yl)piperidine-2,6-dione], the figures for the “Imax (%)” value in assay [1] and in assay [3] were 99.8% and 99.7%, respectively. The IC50 came to 1.1 nM in assay [1] and 6.4 nM in assay [3]. Besides, the values for the DC50 in assay [2] and in assay [4] were 3.3 nM and 3.63 nM, respectively. Besides, the greatest degradation seen (Dmax) worked out at 80.2% in assay [2] and 84.6% in assay [4].
As to `Cc1cc2cc(n1)-c1c(C)nn(C)c1OC[C@H]1CCC(C1)CN1/C(=N/C2=O)Nc2ccc(N3CCN(CC4CCN(c5cc(F)c([C@H]6CCC(=O)NC6=O)c(F)c5)CC4)[C@H](C)C3)cc21` [Example 134, (R)-3-(2,6-difluoro-4-(4-(((R)-2-methyl-4-((7^1R,7^3S,E)-1^1,1^3,2^6-trimethyl-3-oxo-5^2,5^3-dihydro-1^1H,5^1H-9-oxa-4-aza-5(2,1)-benzo[d]imidazola-2(2,4)-pyridina-1(4,5)-pyrazola-7(1,3)-cyclopentanacyclononaphane-5^6-yl)piperazin-1-yl)methyl)piperidin-1-yl)phenyl)piperidine-2,6-dione], in assay [1], the “Imax (%)” value was 92.81% and the 50% inhibitory concentration (IC50) amounted to 1.76 nM. Further, in assay [2], the DC50 is 4.97 nM and the Dmax turned out to be 79.9%. Further, in assay [3], the “Imax (%)” value was determined as 98.27% and half-maximal inhibition (IC50) required 2.49 nM. For the same compound, in assay [4], the half-maximal degradation concentration (DC50) was 1.89 nM and the maximal degradation (Dmax) was 85.9%.

These data come from US20240425523A1, “Compounds for the Degradation of EGFR Kinase” (Beigene Switzerland GMBH, priority 2023, published 2024).
